Measurements as given in patent US9549942B2, “Composition for preventing or treating degenerative brain diseases including compound downregulating expression of BACE1 proteins” (RESEARCH & BUSINESS FOUNDATION SUNGKYUNKWAN UNIVERSITY, priority 2013, dated 2017).

What was measured:
[1] = Body weights and weights of organs (potential toxicity); details: mouse, in vivo, po, 25 mg/kg
Procedure: (§1) As an Alzheimer's dementia animal model, 3×Tg-AD mice were used. The 3×Tg-AD mouse is a mouse having overexpressed presenilin, amyloid precursor protein (APP), and Tau genes, which are frequently found in Alzheimer's dementia. The 3×Tg-AD mouse is an animal model that is widely used for research on Alzheimer's dementia (Oddo S. et al, 2003, Neuron, 39, 409-421). 25 mg/kg of chlorhexidine was orally administered every day for 4 weeks; and 0.1 mg/kg and 0.5 mg/kg of thioguanosine were orally administered every day for 8 weeks to 6-month old 3×Tg-AD mice. A Morris water maze test was used to evaluate the effects of chlorhexidine and thioguanosine administration on the mice.
In order to evaluate potential toxicity of chorhexidine, the body weights and weights of organs were measured for treatment and vehicle subjects.

APP CTFs (C83 and C99) = test: Generation of APP CTFs (C83 and C99) under oxidative stress conditions of brain nerve cells (Western blot); type: cell-based, human; details: SH-SY5Y cells pretreated 24 hours at 5 and 10 μM, then HNE
Procedure: In order to determine an influence of chlorhexidine and thioguanosine of the present disclosure on APP CTFs under oxidative stress conditions of brain nerve cells, the following experiment was performed. Brain nerve cells, SH-SY5Y cells, were pretreated with chlorhexidine and thioguanosine at 5 μM and 10 μM for 24 hours. Then, an oxidative stress substance HNE (4-hydroxynonenal) was used as the treatment, and the generation of APP CTFs (C83 and C99) was determined by Western blot. Under oxidative stress conditions of brain nerve cells treated in accordance with the present disclosure, changes in the generation of APP CTFs are shown in FIGS. 11 and 12.

BACE1 proteins = test: Amount of expression of BACE1 proteins in brain nerve cells (Western blot); type: cell-based, human; details: SH-SY5Y cells, treated 24 hours at 0.625, 1.25, 2.5, 5 and 10 μM, actin control
Procedure: As brain nerve cells, human neuroblastoma cells SH-SY5Y were used. […] The SH-SY5Y cells were plated at 5×10^5 cells/well into a 6-well plate. […] Then, the amount of expression of BACE1 proteins was determined by Western blot. Actin was used throughout as a control.

Aβ40 and Aβ42 = test: Generation of Aβ40 and Aβ42 in brain, human amyloid β assay kits (ELISA); type: in vivo; details: 3×Tg-AD mouse brain, 25 mg/kg orally every day for 4 weeks
Procedure: as §1
From the 3×Tg-AD mouse to which chlorhexidine was administered in Example 4a brain was extracted. A […] frozen section was prepared from the extracted brain using a microtome. Then, generation of Aβ was measured using immuno staining or a human amyloid 13 (1-40) assay kit (IBL) and a human amyloid β (1-42) assay kit (IBL). FIGS. 20 and 21 show the results.

BACE1 mRNA = BACE1 mRNA in brain of Alzheimer's dementia animal model (real-time PCR); type: in vivo; details: 3×Tg-AD mouse, 25 mg/kg orally every day for 4 weeks
Procedure: as §1
From the 3×Tg-AD mouse to which chlorhexidine was administered in Example 4a brain was extracted. The extracted brain was lysed using a tissue lysis buffer and RNA was extracted using Trizol. The amount of BACE1 expression was determined by Western blot and real-time PCR. FIGS. 18 and 19 show the results.

3×Tg-AD mice = test: Morris water maze, platform removed on fifth day (memory); type: in vivo, mouse; details: 25 mg/kg orally every day for 4 weeks, 60 seconds
Procedure: as §1, with “the mice. […] In this configuration, a treated or control subject was placed into the water with its head towards a water tank wall surface, and a time was recorded for the length of time taken for finding the escape platform. […] After 15 minutes, the mouse was placed into the water again, a subsequent time taken for finding the escape platform was recorded, and a change in the learning ability was determined. This procedure was performed over four days, and the result of change in learning ability was measured. […]” for “the mice.”

Which toxicity [1] does the source give for `[H]/N=C(\N/C(=N/[H])NCCCCCCNC(=N)NC(=N)Nc1ccc(Cl)cc1)Nc1ccc(Cl)cc1` [chlorhexidine, N′,N′″″-hexane-1,6-diylbis[N-(4-chlorophenyl)(imidodicarbonimidic diamide)]] here?
Its toxicity is “no toxicity was determined”.

And the “increase in CTFs due to oxidative stress” value (APP CTFs (C83 and C99))?
The value was “decreased at 5 μM and 10 μM”.

What about the “amount of expression of BACE1 proteins” value (BACE1 proteins) of the same compound?
The value was “decreased at 5 μM and 10 μM”.

What about the “generation of Aβ40” value (Aβ40 and Aβ42) of the same compound?
The value was “decreased”.

What about the “generation of Aβ42” value (Aβ40 and Aβ42) of the same compound?
The value was “decreased”.

And the “amount of BACE1 mRNA in brain” value (BACE1 mRNA)?
The value was “lower amount of BACE1 mRNA than that of the control group”.

And the “memory: time in target quadrant after platform removed” value (3×Tg-AD mice)?
Its value is “spent the majority of time in the location in which the platform was formerly placed”.
